{"source": "patent US20080274112A1", "about": "“Nogo Receptor Antagonists” (priority 2003, published 2008)", "molecules": {"B1": {"name": "sNogoR344: soluble Nogo receptor-1 polypeptide, residues 26-344 or 27-344 (protein, listed as Rattus sp.)", "chain": "PCPGACVCYNEPKVTTSRPQQGLQAVPAGIPASSQRIFLHGNRISYVPAASFQSCRNLTILWLHSNALAGIDAAAFTGLTLLEQLDLSDNAQLRVVDPTTFRGLGHLHTLHLDRCGLQELGPGLFRGLAALQYLYLQDNNLQALPDNTFRDLGNLTHLFLHGNRIPSVPEHAFRGLHSLDRLLLHQNHVARVHPHAFRDLGRLMTLYLFANNLSMLPAEVLVPLRSLQYLRLNDNPWVCDCRARPLWAWLQKFRGSSSGVPSNLPQRLAGRDLKRLATSDLEGCAVASGPFRPFQTNQLTDEELLGLPKCCQPDAADKA"}}, "key": {"MAG + sNogoR344-Fc": {"target": "T1, MAG + sNogoR344-Fc (Rattus norvegicus, UniProt Q99M75, A303T/C287S/C43R/E284G/T53A)", "T1 construct": "amino acid residues 26-344 of rat Nogo receptor-1; made in house", "T1 sequence (Q99M75 26-344 C43R/T53A/E284G/C287S/A303T)": "B1 chain", "test": "mAb/Fab inhibition of MAG binding to sNogoR344-Fc (ELISA)", "experimental": "(§1) 0.5 μg of a soluble Nogo receptor-1 fusion protein comprising amino acid residues 26-344 of rat Nogo receptor-1 and the hinge and Fc region of the rat IgG1 molecule (sNogoR344-Fc) produced as described below was immobilized on 250 μg of protein-A- or wheatgerm agglutinin-conjugated SPA beads (Amersham Pharmacia Biotech) for 2 hours at 25° C. SPA beads coupled with Fc-sNogoR-1, anti-Nogo receptor-1 mAb and 1 μl ^125I-Nogo66 (Amersham, 2000 Ci/mmol, 1 nM) in 50 μl of the HEPES-buffered incubation medium (10 mM HEPES, pH 7.4, 0.1% bovine serum albumin, 0.1% ovalbumin, 2 mM MgCl2, 2 mM CaCl2 and protease inhibitors) was added to each sample well. After 16 hours, radioactivity was measured in quadruplicate samples using a TopCount® (Packard). IC50 values were calculated from a curve-fit analysis (FIG. 3) (PRISM, GraphPad Software, NJ). In some experiments, we also used AP-ligand conjugates (e.g. AP-Nogo66) and detected binding by monitoring alkaline phosphatase activity. We also assayed the ability of the mAbs to block binding of the ligands MAG-Fc and AP-OM-gp to Nogo receptor-1.\n(§2) The calculated IC50 for Nogo66 for 7E11 and 1H2 were 400 nM and 60 nM, respectively. The data from ELISAs monitoring mAb-mediated inhibition of binding of the three ligands to Nogo receptor-1 are summarized in Table 6.\n(§3) We also performed ELISA binding assays using the Fab-phage 14D5."}, "Nogo66 + sNogoR344-Fc": {"target": "T2, Nogo66 + sNogoR344-Fc (Rattus norvegicus, UniProt Q99M75, A303T/C287S/C43R/E284G/T53A)", "T2 construct": "amino acid residues 26-344 of rat Nogo receptor-1; made in house", "T2 sequence (Q99M75 26-344 C43R/T53A/E284G/C287S/A303T)": "B1 chain", "test": "mAb/Fab inhibition of Nogo66 binding to sNogoR344-Fc (ELISA)", "experimental": "as §1, §2, §3"}, "OM-gp + sNogoR344-Fc": {"target": "T3, OM-gp + sNogoR344-Fc (Rattus norvegicus, UniProt Q99M75, A303T/C287S/C43R/E284G/T53A)", "T3 construct": "amino acid residues 26-344 of rat Nogo receptor-1; made in house", "T3 sequence (Q99M75 26-344 C43R/T53A/E284G/C287S/A303T)": "B1 chain", "test": "mAb/Fab inhibition of OM-gp binding to sNogoR344-Fc (ELISA)", "experimental": "as §1, §2, §3"}, "[1]": {"target": "polypeptide p-617 (SEQ ID NO: 1) (Rattus norvegicus, UniProt Q99M75)", "test": "Specificity ELISA on polypeptide p-617", "assay_type": "binding", "from_the_text": "To determine the specificity of the monoclonal and Fab-phage antibodies produced in Examples 1 and 2, we performed an ELISA using a panel of Nogo receptor-1 polypeptides. The panel consisted of sNogoR310-Fc (a fusion protein comprising amino acids 26-310 of rat Nogo receptor-1 and a rat Fc fragment), sNogoR344-Fc (see supra), polypeptide p-617 (SEQ ID NO: 1), polypeptide p-618 (a 19-amino acid polypeptide from the LRR7 region of rat Nogo receptor-1; FIG. 2; SEQ ID NO: 11) and polypeptides p-4 and p-5 (polypeptides from the LRR5 and LRRCT regions of Nogo receptor-1, respectively). Ovalbumin and BSA were used as controls."}, "DRG neurons": {"tested_on": "DRG neurons", "test": "Neurite outgrowth assay, myelin mixed with test protein (Example 10)", "assay_type": "cell-based", "details": "P3-4 rat DRG; spotted mixed with CNS myelin", "experimental": "Lab-Tek® culture slides (4 wells) were coated with 0.1 mg/ml poly-D-lysine (Sigma®). CNS myelin alone or mixed with sNogoR310, sNogoR310-Fc fusion protein, mAb 5B10 or control PBS were separately spotted as 3 μl drops. Fluorescent microspheres (Polysciences) were added to the myelin/PBS to allow later identification of the drops (Grandpre et al, Nature 403, 2000). Lab-Tek® slides were then rinsed and coated with 10 μg/ml laminin (Gibco™).\nDorsal root ganglions (DRG's) from P3-4 Sprague Dawley rat pups were dissociated with 1 mg/ml collagenase type 1 (Worthington), triturated with fire-polished Pasteur pipettes pre-plated to enrich in neuronal cells and finally plated at 23,000 cells/well on the pre-coated Labtek culture slides. The culture medium was F12 containing 5% heat inactivated donor horse serum, 5% heat inactivated fetal bovine serum and 50 ng/ml MNGF and incubated at 37° C. and 5% CO2 for 6 hours.\nSlides were fixed for 20 minutes with 4% paraformaldehyde containing 20% sucrose and stained for the neuronal marker anti beta-III-tubulin (Covance TUJ1) diluted 1:500. As secondary antibody anti-mouse Alexa Fluor® 594 (Molecular Probes) was diluted 1:300 and slides were coverslipped with Gel/Mount™ (Biømeda™). 5× digital images were acquired with OpenLab™ software and analyzed by using the MetaMorph® software for quantification of neurite outgrowth."}, "7E11 [2]": {"tested_on": "7E11", "test": "7E11 binding to digest peptides of NgR1 (MS analysis)", "set-up": "species or system murine", "details": "trypsin or Asp-N digest peptides", "experimental": "The 7E11 binding site was further analyzed by testing trypsic peptide digests of sNgR310. […] 7E11 bound only a single tryptic digest peptide, providing additional evidence that […] binds to a single epitope on NgR1. Subsequent mass spectroscopy (MS) and sequence analyses identified the bound peptide to be […] (SEQ ID NO: 26).\nThe LDLSDNAQLRVVDPTT peptide (SEQ ID NO: 1) was subjected to further mapping analysis. The peptide was digested with trypsin, which yielded two major fragments, LDLSDNAQLR (SEQ ID NO: 27) and VVDPTT (SEQ ID NO: 28), and the ability of 7E11 to bind them was tested. […] Within this peptide fraction, detailed MS analysis identified several scrambled peptides that also bound 7E11, including peptides with deamination at Asn115 and Gln117, addition of Alanine at 112 or 113, or addition of Serine at 114 (Table 3).\nThe LDLSDNAQLRVVDPTT peptide was also digested with the endoprotease Asp-N and 7E11 binding was tested. Endoprotease Asp-N cleaved the peptide into 3 peptide fragments, L, DLS and DNAQLRVVDPTT (SEQ ID NO: 36). Of these products, 7E11 bound the DNAQLRVVDPTT peptide. Taken together, the trypsin and Asp-N cleavage data further localize the 7E11 binding epitope to the sequence shared between them, DNAQLR (SEQ ID NO: 37)."}, "7E11 [3]": {"tested_on": "7E11", "test": "7E11 binding to immobilized point-mutant peptides (EC50)", "set-up": "species or system murine", "experimental": "To verify these contact points, several peptides containing point mutations within the LDLSDNAQLR sequence (SEQ ID NO: 27) were generated and tested for 7E11 binding. The peptides were immobilized on a MaxiSorp™ plate (Nunc®) and serial dilutions of […] were applied. […] The most significant change in EC50 was observed when Arg119 was mutated to Alanine."}, "Nogo receptor-1": {"tested_on": "Nogo receptor-1", "test": "Blocking of ligand binding to Nogo receptor-1 by soluble receptors"}}}
{"molecule": "5B10: murine monoclonal anti-Nogo receptor-1 antibody, IgG1 kappa, ATCC PTA-4588; immunogen rat Nogo receptor-1 residues 110-125", "values": [{"measurement": "inhibition of binding of MAG to sNogoR344-Fc", "setting": "MAG + sNogoR344-Fc", "result": "inhibited binding"}, {"measurement": "inhibition of binding of Nogo66 to sNogoR344-Fc", "setting": "Nogo66 + sNogoR344-Fc", "result": "inhibited binding"}, {"measurement": "inhibition of binding of OM-gp to sNogoR344-Fc", "setting": "OM-gp + sNogoR344-Fc", "result": "inhibited binding"}, {"measurement": "binding to polypeptide p-617", "setting": "[1]", "result": "specifically bound"}, {"measurement": "protection from myelin-mediated inhibition of neurite outgrowth", "setting": "DRG neurons", "result": "protected"}]}
{"molecule": "AAAFGLTLLEQLDLSDNAQLR (AAAFTGLTLLEQLDLSDNAQLR) [tryptic digest peptide of sNgR310]", "values": [{"measurement": "binding by 7E11", "setting": "7E11 [2]", "result": "bound"}]}
{"molecule": "DNAQLRVVDPTT", "values": [{"measurement": "binding by 7E11", "setting": "7E11 [2]", "result": "bound"}]}
{"molecule": "LDLSDNAALRVVDPTT [Q117A]", "values": [{"measurement": "increase of EC50 versus original peptide", "setting": "7E11 [3]", "result": 30, "unit": "fold"}]}
{"molecule": "LDLSDNAQLHVVDPTT [R119H]", "values": [{"measurement": "increase of EC50 versus original peptide", "setting": "7E11 [3]", "result": 25, "unit": "fold"}]}
{"molecule": "LDLSDNAQLR", "values": [{"measurement": "binding by 7E11", "setting": "7E11 [2]", "result": "bound"}]}
{"molecule": "B1", "values": [{"measurement": "blocking of binding of NogoA, NogoB, NogoC, MAG and OM-gp to Nogo receptor-1", "setting": "Nogo receptor-1", "result": "block the binding"}]}
